The values below come from US20200289554A1, “BIOORTHOGONAL COMPOUNDS COMPRISING A PROPARGYL GROUP FOR TREATING CANCER” (THE UNIVERSITY COURT OF THE UNIVERSITY OF EDINBURGH, priority 2016, published 2020).

The term EC50 denotes the midpoint of the concentration-response curve.

In one assay the test system is T98 cells. Briefly: Prodrug safety dose-response cell viability (PrestoBlue), T98. The assay is classed as cell-based. Conditions: Homo sapiens, 120 h, 5 days, no catalyst. As for the experimental part: These cell lines were selected as these are primary malignancies against which the parental drugs are currently prescribed.
The toxicities of each active agent and prodrugs were compared by performing dose-response studies. […] Cell viability was analysed by fluoresce intensity (λex=540 nm; λem=590 nm) after 60-90 min incubation with PrestoBlue™ Reagent (Life Technologies).

Another assay relates to A549 cells. Briefly: BOOM conversion: prodrug + metal resins in cell culture, cell viability, A549. The assay is classed as cell-based, human. As for the experimental part: Cell viabilities for each prodrug provided as a combination with palladium is presented in FIG. 3 and gold is presented in FIG. 33 in the right of each set of two bars. […] Cells were incubated in tissue culture media containing 0.1% (v/v) DMSO and: Pd^0, Au, or Pd/Au-resins (1 mg/mL, negative control); 100 μM of each prodrug (negative control); and Pd^0, Au, or Pd/Au-resins (1 mg/mL)+100 μM of each prodrug (BOOM reaction assay). Cells incubated in 0.1% (v/v) DMSO in media were used as untreated cell control.
Following 5 days treatment, cells were incubated with PrestoBlue™ Cell Viability Reagent (Life Technologies) for 60-90 min. Fluorescence intensity values were related to the untreated cells (100% cell viability). […] Cells incubated in 0.1% (v/v) DMSO in media were used as untreated cell control.
(§1) Cell viabilities for each prodrug provided as a combination with palladium is presented in FIG. 7 in the right of each set of two bars. Data for prodrug in the absence of palladium catalyst is also provided (the left bar of each set of two bars) for comparison along with negative controls (from left to right: DMSO, Pd^0 and Doxorubicin). Cells were incubated in tissue culture media containing 0.1% (v/v) DMSO and: Pd^0-resins (1 mg/mL, negative control); 1 μM of each prodrug (negative control); and Pd^0-resins (1 mg/mL)+1 μM of each prodrug (BOOM reaction assay). Cells incubated in 0.1% (v/v) DMSO in media were used as untreated cell control.
Following 5 days treatment, cells were incubated with PrestoBlue™ Cell Viability Reagent (Life Technologies) for 90 min. Fluorescence intensity values were related to the untreated cells (100% cell viability). Data are provided in FIG. 8 for cells incubated in tissue culture media containing 0.1% (v/v) DMSO and: Pd^0-resins (1 mg/mL, negative control); 0.3-3 μM of Doxorubicin prodrug for A549 and DU145 cell lines, 0.1-1 μM of Doxorubicin prodrug for T98 cell line (negative control); 0.3-3 μM of Doxorubicin for A549 and DU145 cell lines, 0.1-1 μM of Doxorubicin for T98 cell line (positive control); and Pd^0-resin (1 mg/mL)+Doxorubicin prodrug (BOOM reaction assay). Cells incubated in 0.1% (v/v) DMSO in media were used as untreated cell control.
as §1, with “21” for “7”, “panobinostat).” for “Doxorubicin).”
The toxigenic effect as a result of in situ generation of parental drug in cell culture was determined by incubating all cells in tissue culture media containing 0.1% (v/v) DMSO and a) Pd^0, Au, or Pd/Au-resin (1 mg/mL for all cells tested, negative control); b) prodrug (negative control); or c) Pd^0, Au, or Pd/Au-resin (1 mg/mL for all cells)+prodrug (reaction assay). Cells incubated in 0.1% (v/v) DMSO in media was used as an untreated cell reference standard (100% viability). A PrestoBlue® cell viability assay as described above was carried out and fluorescent intensities compared to the untreated cell control.
A dose response study was performed for each cell line keeping the quantity of Pd^0 resin constant (0.8 mg/mL for U87G and 1 mg/mL for the rest of cell lines). All cells were plated in Dulbecco's Modified Eagle Media (DMEM) supplemented with serum (10% FBS) and L-glutamine (2 mM). […]

A value given as a limit tells only on which side of the number the result lay.

On to `C#CCOc1ccc(CONC(=O)CCCCCCC(=O)Nc2ccccc2)cc1` [POB-Vor, Propargyloxybenzyl-Vorinostat], for which the EC50 in the assay with T98 cells was greater than 500 µM; in the assay with A549 cells (Homo sapiens, 120 h, prodrug in combination with Pd0-resins 1 mg/mL, 5 days, read-out: EC50, prodrug + Pd-resins) it was 10.5 µM. In addition, the “toxigenic effect of prodrug + Au resins” value with A549 cells (Au resins 1 mg/mL, prodrug 100 μM) was “strong toxigenic effect”. In the assay with A549 cells (Pd0-resin 1 mg/mL, 100 μM Vorinostat prodrugs, 1 μM Doxorubicin prodrugs, 0.3 μM Panobinostat prodrug), the “toxigenic effect of prodrug + Pd0 resins” value was “strong toxigenic effect”. Further, the “toxigenic effect of prodrug + Pd/Au resins” value in the assay on A549 cells (Pd/Au resins 1 mg/mL, prodrug 100 μM) was “strong toxigenic effect”.
